From US8877759B2, “Aminopyrazines as ATR kinase inhibitors” (Vertex Pharnaceuticals Incorporated, priority 2011, dated 2014) come the findings set out here.

For the test, the target named is T1, full-length ATR (Homo sapiens, UniProt Q13535).
T1 construct: Assays were carried out at 25° C. in the presence of 5 nM full-length ATR
The test can be described thus: ATR Inhibition Assay (radioactive-phosphate incorporation). The conditions noted are these: for ATR Ki: Ki(app), 5 nM full-length ATR, 10 μM [γ-33P]ATP, 800 μM target peptide, 25° C. Format: biochemical.

T1 sequence (Q13535 whole entry): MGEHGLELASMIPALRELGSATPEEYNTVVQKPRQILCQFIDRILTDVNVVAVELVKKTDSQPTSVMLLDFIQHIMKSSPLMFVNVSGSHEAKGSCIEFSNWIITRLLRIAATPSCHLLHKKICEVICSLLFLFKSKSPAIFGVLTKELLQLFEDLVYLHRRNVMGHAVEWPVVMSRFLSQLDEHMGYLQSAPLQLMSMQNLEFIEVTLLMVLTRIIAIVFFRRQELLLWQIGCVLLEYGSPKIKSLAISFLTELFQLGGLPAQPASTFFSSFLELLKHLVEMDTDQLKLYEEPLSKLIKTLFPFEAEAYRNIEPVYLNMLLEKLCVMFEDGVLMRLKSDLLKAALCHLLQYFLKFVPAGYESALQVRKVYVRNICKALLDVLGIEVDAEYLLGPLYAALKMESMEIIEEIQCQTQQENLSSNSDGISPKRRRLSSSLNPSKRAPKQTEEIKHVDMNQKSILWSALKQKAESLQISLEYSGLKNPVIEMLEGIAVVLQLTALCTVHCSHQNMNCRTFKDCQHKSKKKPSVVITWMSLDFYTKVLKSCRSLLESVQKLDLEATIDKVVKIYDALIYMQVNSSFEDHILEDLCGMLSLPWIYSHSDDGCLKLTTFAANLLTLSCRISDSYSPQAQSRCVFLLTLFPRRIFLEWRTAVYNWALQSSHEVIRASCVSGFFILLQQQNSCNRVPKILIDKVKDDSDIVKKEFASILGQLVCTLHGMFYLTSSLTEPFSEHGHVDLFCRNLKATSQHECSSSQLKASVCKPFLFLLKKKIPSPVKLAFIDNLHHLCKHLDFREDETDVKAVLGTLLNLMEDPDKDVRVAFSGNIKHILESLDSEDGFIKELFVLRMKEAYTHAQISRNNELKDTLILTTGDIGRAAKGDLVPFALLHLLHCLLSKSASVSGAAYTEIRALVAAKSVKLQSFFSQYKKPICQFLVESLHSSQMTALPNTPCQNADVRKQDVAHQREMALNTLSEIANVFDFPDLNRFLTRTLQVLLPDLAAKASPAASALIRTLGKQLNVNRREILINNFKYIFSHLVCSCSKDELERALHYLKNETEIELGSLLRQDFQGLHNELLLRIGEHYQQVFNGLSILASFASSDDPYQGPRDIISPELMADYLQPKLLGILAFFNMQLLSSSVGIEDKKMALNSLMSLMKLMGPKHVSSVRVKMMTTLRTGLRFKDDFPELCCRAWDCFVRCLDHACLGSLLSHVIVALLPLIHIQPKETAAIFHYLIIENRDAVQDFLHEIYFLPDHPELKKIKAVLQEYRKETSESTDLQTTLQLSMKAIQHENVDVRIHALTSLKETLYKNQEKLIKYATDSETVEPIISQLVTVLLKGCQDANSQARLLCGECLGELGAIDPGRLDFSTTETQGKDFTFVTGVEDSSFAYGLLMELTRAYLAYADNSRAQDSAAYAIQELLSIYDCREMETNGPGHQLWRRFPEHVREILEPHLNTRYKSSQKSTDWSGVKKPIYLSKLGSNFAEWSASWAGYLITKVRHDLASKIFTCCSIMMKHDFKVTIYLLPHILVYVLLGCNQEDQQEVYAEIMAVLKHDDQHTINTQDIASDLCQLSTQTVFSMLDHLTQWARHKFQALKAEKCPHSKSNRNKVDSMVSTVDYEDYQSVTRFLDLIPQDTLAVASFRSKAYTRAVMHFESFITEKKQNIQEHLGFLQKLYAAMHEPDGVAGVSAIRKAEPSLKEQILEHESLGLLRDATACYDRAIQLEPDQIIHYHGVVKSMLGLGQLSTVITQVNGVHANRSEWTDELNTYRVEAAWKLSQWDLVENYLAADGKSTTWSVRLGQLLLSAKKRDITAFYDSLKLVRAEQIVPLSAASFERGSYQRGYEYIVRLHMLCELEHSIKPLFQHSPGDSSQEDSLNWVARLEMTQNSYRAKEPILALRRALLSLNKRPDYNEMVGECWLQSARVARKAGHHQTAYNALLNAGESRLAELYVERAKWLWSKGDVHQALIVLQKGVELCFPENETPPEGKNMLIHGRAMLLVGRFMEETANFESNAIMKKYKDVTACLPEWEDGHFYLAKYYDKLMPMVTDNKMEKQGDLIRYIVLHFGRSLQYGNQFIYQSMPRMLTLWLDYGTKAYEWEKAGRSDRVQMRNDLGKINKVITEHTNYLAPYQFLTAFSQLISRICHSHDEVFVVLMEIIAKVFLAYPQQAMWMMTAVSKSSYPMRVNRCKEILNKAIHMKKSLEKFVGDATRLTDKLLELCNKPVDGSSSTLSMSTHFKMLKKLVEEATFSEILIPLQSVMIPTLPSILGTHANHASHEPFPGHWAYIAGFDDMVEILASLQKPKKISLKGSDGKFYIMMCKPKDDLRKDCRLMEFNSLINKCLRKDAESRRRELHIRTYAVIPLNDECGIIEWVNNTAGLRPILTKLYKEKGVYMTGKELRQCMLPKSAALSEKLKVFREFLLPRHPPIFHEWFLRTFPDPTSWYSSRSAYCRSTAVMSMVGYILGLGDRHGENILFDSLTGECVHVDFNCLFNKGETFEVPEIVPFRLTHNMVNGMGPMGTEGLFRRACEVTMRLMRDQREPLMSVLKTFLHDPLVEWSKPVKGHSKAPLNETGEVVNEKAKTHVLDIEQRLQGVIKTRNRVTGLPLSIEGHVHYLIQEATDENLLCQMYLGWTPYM

With `CC(C)(C#N)c1nccc(-c2cnc(N)c(-c3cc(-c4ccc(CNC5CCOCC5)cc4)no3)n2)c1F` [Compound I-138], the “ATR Ki” value is given as “+++ (Compounds with a Ki value >5 nM but ≦1 nM are marked with “+++.”)”.
As to `CC(C)(C#N)c1nccc(-c2cnc(N)c(-c3cc(-c4ccc(CNCC5COC5)cc4)no3)n2)c1F` [Compound I-139], the Ki (usually a dissociation constant, usually derived from enzyme kinetics or from competition with a known ligand) is 5 to 20 nM.
For `CC(C)(C#N)c1cc(-c2cnc(N)c(-c3nnc(-c4ccc5c(c4)CNCC5)o3)n2)ccn1` [Compound I-55], the Ki was under 1 nM.
Consider `CNCc1ccc(-c2cc(-c3nc(-c4ccnc(C(C)(C)C(N)=O)c4)cnc3N)on2)cc1` [Compound I-10, 2-[4-[5-amino-6-[3-[4-(methylaminomethyl)phenyl]isoxazol-5-yl]pyrazin-2-yl]-2-pyridyl]-2-methyl-propanamide], for which the Ki is under 1 nM.
As to `CNCc1ccc(-c2cc(-c3nc(-c4ccnc(C(C)(C)S(C)(=O)=O)c4)cnc3N)on2)cc1` [Compound I-14, 3-[3-[4-(methylaminomethyl)phenyl]isoxazol-5-yl]-5-[2-(1-methyl-1-methylsulfonyl-ethyl)-4-pyridyl]pyrazin-2-amine], the Ki is under 1 nM.
For `CC(C)(C#N)c1cc(-c2cnc(N)c(-c3nnc(-c4ccc(N5CC(N)C5)cc4)o3)n2)ccn1` [Compound I-123], the inhibition constant (Ki) was under 1 nM.
Turning to `CC(C)(C#N)c1cc(-c2cnc(N)c(-c3cc(-c4ccc(CNCC5COC5)cc4)no3)n2)ccn1` [Compound I-102], the Ki is under 1 nM.
Turning to `C[C@H](N)c1ccc(-c2nnc(-c3nc(-c4ccnc(C5(C#N)CCC5)c4)cnc3N)o2)cc1` [Compound I-43, 1-[4-[5-amino-6-[5-[4-[(1S)-1-aminoethyl]phenyl]-1,3,4-oxadiazol-2-yl]pyrazin-2-yl]-2-pyridyl]cyclobutanecarbonitrile], the inhibitory constant (Ki) was under 1 nM.
Take `CC(C)(C#N)c1cc(-c2cnc(N)c(-c3nnc(-c4ccc(N5CCCC5CN)cc4)o3)n2)ccn1` (stereo not drawn) [Compound I-68]: the Ki lay within 5 to 20 nM.
As for `CC(C)(C(=O)NCCO)c1cc(-c2cnc(N)c(-c3cc(-c4ccccc4)no3)n2)ccn1` [Compound I-46, 2-[4-[5-amino-6-(3-phenylisoxazol-5-yl)pyrazin-2-yl]-2-pyridyl]-N-(2-hydroxyethyl)-2-methyl-propanamide], the Ki was under 1 nM.
For `COc1ccccc1-c1cc(-c2nc(-c3ccnc(C4(C#N)CCNCC4)c3)cnc2N)on1` [Compound I-27, 4-[4-[5-amino-6-[3-(2-methoxyphenyl)isoxazol-5-yl]pyrazin-2-yl]-2-pyridyl]piperidine-4-carbonitrile], the “ATR Ki” value was “+++ (Compounds with a Ki value >5 nM but ≦1 nM are marked with “+++.”)”.
As for `CC(N)CNc1ccc(-c2nnc(-c3nc(-c4ccnc(C(C)(C)C#N)c4)cnc3N)o2)cc1` (stereo not drawn) [Compound I-130], the Ki was under 1 nM.
